Experimental data taken from US20180353461A1, “USE OF CANNABINOIDS AS CERAMIDE-GENERATING ANTICANCER AGENTS IN TUMORS OF THE HEMATOPOIETIC AND LYMPHOID TISSUES” (priority 2014, published 2018).

Key:
U266 cells = test: SPT expression, ceramide staining and SPT inhibition in U266 cells; assay type: cell-based, human; conditions: U266, co-incubation with cannabinoid, 6 hours
Description: Except if otherwise indicated, for the viability assays primary cells were incubated 18 hours, with vehicle (with <0.15% DMSO) or cannabinoid. Meanwhile, the time course assays cells were performed at 0, 2, 6, 18 and 24 h. For the analysis of SPT activity, cells were co-incubated for the first 6 hours with the SPT inhibitor, myriocin, and the cannabinoid, WIN-55 or JWH-133.
Samples (15-25 ug/lane) were subjected to SDS/PAGE in pre-cast polyacrylamide gels AnykD (Bio-Rad Laboratories, Hercules, CA, USA) under reducing and denaturing conditions. Electrophoretic run was performed at a constant current of 15 mA per gel in a Mini-Protean® Tetra Cell (Bio-Rad Laboratories). Once proteins were separated by electrophoresis, were transferred onto PVDF membranes using Trans-Blot® Turbo™ System (Bio-Rad Laboratories). Electrotransference was conducted at constant amperage of 1.2 mA and at up to 25 V of voltage. The blotted membranes were then blocked with 2% bovine serum albumin [(BSA), Santa Cruz Biotechnology] in Tween-Tris buffer saline (TTBS) for 30 min with gentle agitation, and incubated overnight at 4° C. with corresponding primary antibody in TTBS. After twice washing with TTBS, membranes were incubated for 1-2 h at room temperature with suitable conjugated-HRP secondary antibody, and subjected to chemiluminescence detection using Western Blotting Luminol Reagent (Santa Cruz Biotechnology). Loading controls were carried out with an anti-beta-actin and anti-beta-tubulin antibodies (Sigma-Aldrich). Blots were captured using a digital imaging system ImageQuant LAS 4000 (Amersham GE Healthcare) and transferred to a digital image processing software to analyze (Adobe Photoshop CS2, version 9.0., Adobe Systems Inc., San Jose, Calif.).
After cannabinoids and/or antagonists or SPT inhibitor treatment, primary cells and cell lines were washed with PBS, collected and placed on slides (Menzel-Glaser, Thermo Fisher Scientific). Cells were fixed in cold 4% paraformaldehyde for 10 min, treated with sodium borohydride and, permeabilized in 0.02% Triton X-100 in PBS with 10% normal donkey serum for blocking. Then, cells were incubated with the anti-CB1 or anti-CB2 receptor antibodies, anti-active-caspase3, anti-ceramide in blocking buffer overnight at 4° C. in a humid chamber (Simport, Beloeil, QC, Canada). After washing with PBS, samples were further incubated for 90 min with Alexa 647- or Alexa 488—conjugated donkey secondary antibody. After twice washing, first with PBS and then with 50 mM Tris-HCl (pH 7.4), and were dipped in a solution of Sudan Black B (Sigma-Aldrich) in 70% methanol for 5 min. After immunocytochemistry, slides were mounted using Fluoromount Aqueous Mounting Medium (Sigma-Aldrich). Preparations were examined with an Olympus BX-61 microscope (Olympus, Hamburg, Germany) equipped with appropriate filters: FITC/Cy2 (green fluorophores) 460-490 nm bandpass excitation filter and 510-550 nm bandpass emission filter; rhodamine/Cy3 (red fluorophores) 541-551 nm excitation and 572-607 nm emission; and Cy5 (deep red fluorophore) 615-635 nm excitation and 655 nm longpass emission. Digital images were acquired with CellSens Dimension Software (Olympus) and contrasted with Photoshop CS2 Software (Adobe Systems Inc). […]
De novo synthesis of ceramides contribute to the apoptotic process triggered by cannabinoids. […] To this end, we analyzed the expression of serine palmitoyltransferase (SPT), the enzyme that catalyses the rate-limiting step of ceramide synthesis de novo. […]

HL60 cells = test: SPT expression, ceramide staining and SPT inhibition in HL60 cells; assay type: cell-based, human; conditions: HL60, co-incubation with cannabinoid, 2 hours
Description: Extracted proteins (15-25 ug/well) were separated by sodium dodecyl sulfate-polyacrylamide gel electrophoresis (SDS/PAGE) in pre-cast polyacrylamide gels AnykD (Bio-Rad Laboratories, Hercules, Calif., USA) under reducing and denaturing conditions. Electrophoretic run was performed at a constant current of 15 mA per gel in a Mini-Protean® Tetra Cell (Bio-Rad Laboratories) and were electrophoretically transferred onto PVDF membranes using Trans-Blot® Turbo™ System (Bio-Rad Laboratories). Blocking was performed with 2% bovine serum albumin [(BSA), Santa Cruz Biotechnology] in Tween-Tris buffer saline (TTBS). Membranes were incubated overnight at 4° C. with corresponding primary antibody in TTBS.
Cells were grown on glass cover slips (Menzel-Glaser, Thermo Fisher Scientific) in the presence or absence of WIN 55,212-2. The cover slips were then washed twice in phosphate-buffered saline (PBS), and the cells were fixed in cold 4% paraformaldehyde for 10 min, treated with sodium borohydride and, permeabilized in 0.02% Triton X-100 in PBS with 10% normal donkey serum for blocking. Cell nuclei were stained with diamidino-2-phenylindole [(DAPI), Pierce, Thermo Fisher Scientific)]. Then, cells were incubated with the anti-CB1 or anti-CB2 receptor antibodies or anti-ceramide in blocking buffer overnight at 4° C. in a humid chamber (Simport, Beloeil, QC, Canada). After washing with PBS, samples were further incubated for 90 min with Alexa 647- or Alexa 488-conjugated donkey secondary antibody.
After final washing in PBS, the cover slips were dried and mounted on slides using Fluoromount Aqueous Mounting Medium (Sigma-Aldrich). Changes in the protein expression were visualized by fluorescence microscopy using a specific excitation for each antibody. Digital images were acquired with CellSens Dimension Software (Olympus) and manipulated with Photoshop CS2 Software (Adobe Systems Inc). There was no labeling when the primary antibody was omitted (data not shown).
Additionally, de novo synthesis of ceramides also contribute to the apoptotic process triggered by cannabinoids in AML. We examined whether ceramides participate in the cannabinoid-induced apoptosis in leukemic cells. To this end, we analyzed the expression of serine palmitoyltransferase (SPT), the enzyme that catalyses the rate-limiting step of ceramide synthesis de novo. […] To ensure that this up-regulation of SPT entails an increased of ceramide synthesis, we examined the expression of ceramide by immunohistochemistry. […] Furthermore, to strengthen the engagement of the ceramide in cannabinoid-induced apoptosis, we analyzed the cannabinoid-induce apoptosis after inhibition of ceramide synthesis with Myoricin, a selective SPT inhibitor.

`CCCCCCC(=O)CCCCCC/C=C/C[C@@H](O)[C@H](O)[C@@](N)(CO)C(=O)O` [Myoricin] was tested. Which “fragmentation of PARP induced by cannabinoid, after blockage of ceramide synthesis” value (U266 cells) did it give?
Its value is “abolished, at least in part”.

What about the “fragmentation of PARP induced by cannabinoid, after blockage of ceramide synthesis” value (HL60 cells) of the same molecule?
Its value is “abolished, at least in part”.
